In the NIST ThermoML archive (doi:10.1016/j.jct.2004.11.023):

Test: xn = mol fraction of the nth substance listed
Conditions: 101 kPa, Liquid, Vibrating tube method

Cc1cc(C)cc(C)c1 [1,3,5-trimethylbenzene] + CC(=O)c1ccccc1
x1 = 1
Conditions	mass density [kg/m3]
298.15 K	861.13
328.15 K	836.63

Cc1cccc(C)c1 [1,3-dimethylbenzene] + CC(=O)c1ccccc1
x1 = 1
Conditions	mass density [kg/m3]
298.15 K	859.88
328.15 K	834.12

CC(=O)c1ccccc1 [acetophenone] + Cc1cc(C)cc(C)c1
mass density [kg/m3]
Conditions	298.15 K	328.15 K
x2 = 0	1023.13	996.99
x2 = 0.09015	1006.63	980.65
x2 = 0.185	989.75	963.9
x2 = 0.2674	975.43	949.71
x2 = 0.358	960.07	934.46
x2 = 0.4569	943.72	918.28
x2 = 0.5358	930.98	905.65
x2 = 0.6409	914.41	889.25
x2 = 0.7322	900.4	875.38
x2 = 0.836	884.84	860
x2 = 0.8961	876.03	851.31

CC(=O)c1ccccc1 [acetophenone] + Cc1cccc(C)c1
mass density [kg/m3]
Conditions	298.15 K	328.15 K
x2 = 0	1023.12	996.98
x2 = 0.09263	1007.97	981.88
x2 = 0.1807	993.62	967.52
x2 = 0.2662	979.65	953.61
x2 = 0.3566	964.94	938.89
x2 = 0.4525	949.31	923.26
x2 = 0.538	935.34	909.32
x2 = 0.6252	921.13	895.13
x2 = 0.7339	903.38	877.43
x2 = 0.8479	884.76	858.85
x2 = 0.8943	877.15	851.29

CC(=O)c1ccccc1 [acetophenone] + Cc1ccccc1
mass density [kg/m3]
Conditions	298.15 K	328.15 K
x2 = 0	1023.12	997.01
x2 = 0.1016	1008.8	982.57
x2 = 0.1982	994.83	968.48
x2 = 0.257	986.17	959.73
x2 = 0.3576	971	944.41
x2 = 0.453	956.2	929.46
x2 = 0.5369	942.81	915.9
x2 = 0.6366	926.48	899.39
x2 = 0.7154	913.19	885.89
x2 = 0.8198	895.09	867.55
x2 = 0.9019	880.36	852.62

CC(=O)c1ccccc1 [acetophenone] + c1ccccc1
mass density [kg/m3]
Conditions	298.15 K	328.15 K
x2 = 0	1023.11	997
x2 = 0.1057	1011.02	984.62
x2 = 0.186	1001.34	974.7
x2 = 0.2855	988.94	961.91
x2 = 0.3792	976.58	949.15
x2 = 0.4626	964.98	937.16
x2 = 0.5484	952.49	924.19
x2 = 0.6248	940.71	911.99
x2 = 0.7289	923.84	894.3
x2 = 0.8003	911.56	881.44
x2 = 0.8953	894.23	863.18

c1ccccc1 [benzene] + CC(=O)c1ccccc1
x1 = 1
Conditions	mass density [kg/m3]
298.15 K	873.64
328.15 K	841.51

Cc1ccccc1 [toluene] + CC(=O)c1ccccc1
x1 = 1
Conditions	mass density [kg/m3]
298.15 K	862.27
328.15 K	834.26
